SMILES strings stand for the structures.

For data set [1], the system named is ATTR patients with mutated TTR (V30M). The following applies: cited from earlier work.
Data set [2] relates to native TTR. To be noted: Taf Group; no Taf Group 273.8 nM, non-ATTR controls 271.5 nM; not significantly different; cited from earlier work.
Data set [3] concerns ATTR-CM patients. To be noted: cited from earlier work.
A short description of data set [4]: Tafamidis exposure in vitreous fluid / across blood-brain barrier after oral dosing. Type of data set: in vivo, human. To be noted: long-term. An excerpt:
Multiple publications have reported reduced serum TTR levels, as measured by nephelometry or radial immunodiffusion (commercial kits readily available), in familial amyloid polyneuropathy patients with vitreous amyloidosis. “Prealbumin. A major constituent of vitreous amyloid,” Ophthalmology. 1987 July; 94(7):792-8. […] “Transthyretin deposition in the eye in the era of effective therapy for hereditary ATTRV30M amyloidosis,” https://doi.org/10.1080/13506129.2018.1554563.

For data set [5] the following is noted: oral tafamidis (presumably 20 mg QD) long-term; cited from earlier work.
The test system of data set [6] is HMW TTR. To be noted: V30M ATTR patients; cited from earlier work.
In data set [7] the test system is TTR. The data set can be described thus: TTR levels at tafamidis 20 vs 80 mg, Phase 3 ATTR-ACT trial. Type of data set: in vivo, human. To be noted: proprietary analysis. The procedure:
We believe our discovery has relevance to the recently reported Phase 3 ATTR-ACT trial that readout positive mortality reduction with pooled tafamidis (20 mg and 80 mg QD) vs placebo. […] This is in line with one of Pfizer's expectations for the Phase 3 protocol (Maurer 2018, Phase 3 Final Protocol, 31 Jul. 2013. PF-06291826 Tafamidis Meglumine. B3461028) when looking at the plot of % TTR stabilization (y-axis) and molar ratio of tafamidis in FIG. 5: TTR levels (μM). We highlighted in red the wide ranges for pharmacodynamic effects related to 80 mg relative to 20 mg (in blue shade) to point out (1) potential for both dose-strengths to nearly overlap, (2) plotted data points were from Phase 1 data in healthy volunteers using liquid formulations of tafamidis (not capsule formulation given in Phase 3 ATTR-ACT trial), and (3) 80 mg PD expectations were calculated as a 4× multiple of 20 mg PD data, which could be important given PK variations may have not been optimized and could explain differences seen in Phase 3 ATTR-ACT clinical trial which tested 20 mg and 80 mg doses of tafamidis.

In data set [8] the target is TTR (Homo sapiens, UniProt P02766). The data set can be described thus: TTR levels in ATTR-CM patients on tafamidis 20 mg QD (Fx1B-201), immunoturbidimetric assays. Type of data set: in vivo. To be noted: wtATTR-CM patients. The procedure:
(§1) We believe these levels were measured using immunoturbidimetric assays performed by Genzyme Analytic Services.

Data set [9] addresses TTR (Homo sapiens, UniProt P02766, V142I). The data set is described as above. Format: in vivo. The following applies: V1221 mATTR-CM patients. The procedure: as §1
Data set [10] addresses T1, TTR tetramer (Homo sapiens, UniProt P02766).
T1 construct: TTR tetramer levels were measured by immunoturbidimetric (IT) assays by Abbot Laboratories; from tissue; host or cells: blood samples of human wtATTR-CM patients (literature study, Circ Heart Fail 2018)
The following applies: wtATTR-CM, off-label diflunisal; untreated 22 mg/dL (12-29); cited from earlier work.

The subject of data set [11] is wtATTR-CM patients. The following applies: p<0.001; cited from earlier work.
Data set [12] has as its system TTR-assisted beta-amyloid (Aβ) transport. The following applies: cited from earlier work.

Consider `O=C(O)c1ccc2nc(-c3cc(Cl)cc(Cl)c3)oc2c1` [tafamidis], for which the ocular abnormalities in [1] (20 mg/day, liver transplant 34%, supportive therapy 26%) is recorded as 22%. In addition, in data set [1] (ATTR-PN, long-term treatment (>5 years), p=0.09 vs untreated, p=0.007 vs liver transplantation), the “ocular abnormalities compared to untreated or liver transplantation” value is “lower ocular abnormalities”. The “Average [native TTR] in the CSF” value in data set [2] was 265.8 nM. Besides, the “lower death-rates at month-30 compared to untreated” value in data set [3] (ATTR-CM patients, 20 mg tafamidis, long-term follow-up) is on record as ~40%. Also, in data set [3] (ATTR-CM patients, 20 mg tafamidis), the “rate at month-30 (77% vs 45% untreated)” value is recorded as 77%. Besides, the “reduction in death-rate at month-30 vs placebo” value in data set [3] (Phase 3 ATTR-ACT, pooled 20 mg QD and 80 mg QD, mATTR and wtATTR-CM) is ~30%. Further, in data set [4], the blood-brain barrier crossing entry is “can cross the blood-brain barrier”. Further, the “drug levels in the vitreous fluid” value in data set [5] is listed as “detectable drug levels”. For the same compound, the “HMW TTR levels” value in [6] is reported as “increase HMW TTR levels”. The “differences in TTR levels between the two dose-strengths” value in data set [7] is listed as ~1 mg/dL. In addition, the “increase of TTR levels from baseline” value in [8] was ~17%; in data set [9] it was 50-60%.
For the compound `O=C(O)c1cc(-c2ccc(F)cc2F)ccc1O` [diflunisal], the “TTR levels after one year” value in [10] is recorded as 30 mg/dL. In addition, in data set [11], the “one-year survival-rates vs untreated” value was “improved one-year survival-rates”.
Take `O=C(O)c1cc(-c2ccc(F)cc2F)cc(I)c1O` [iodo-diflunisal]: the “TTR-assisted beta-amyloid (Aβ) transport” value in [12] is listed as “enhanced”.

Values taken from patent US20210223266A1, “METHODOLOGIES AND METHODS FOR MEASURING HIGHER MOLECULAR WEIGHT TRANSTHYRETIN OR EQUIVALENTS AS A CLINICAL BIOMARKER” (TTR Therapeutics, priority 2019, published 2021).
